Converted amounts (≈) assume the structure as drawn. Structures can show the parent of a compound that is named as a salt. A value given as a limit tells only on which side of the number the result lay.

Experiment [1] has as its system S. aureus strain ATCC13709. Nature of the experiment: Antibacterial susceptibility (MIC) in CAMHB. The class given is cell-based. The following applies: for Minimum inhibitory concentration, CAMHB: S. aureus ATCC 13709, cation adjusted Mueller-Hinton broth, 37° C., 18 h; for MIC: Staphylococcus aureus, ATCC13709, 18 h, read-out: Minimum inhibitory concentration, CAMHB. The method, then:
(§1) Susceptibility of S. aureus strain ATCC13709 to the commercial antibiotics and synthesized compounds was determined by following the guidelines set by the Clinical and Laboratory Standards Institute (formerly the National Committee for Clinical Laboratory Standards) (M26-A). Compounds were diluted two-fold serially in either DMSO (Vancomycin 4, Oritavancin 8, compounds 10, 31, 33, 39, 44, 50, 60, 65), DMF (compounds 18 and 21) or in PBS (compound 6) and transferred to cation-adjusted Mueller Hinton broth (CAMHB; Becton Dickinson). 50 μL of compounds diluted in CAMHB was mixed with […] of bacteria diluted in CAMHB in 96-well microtiter plates. The final number of micro-organisms in the assay was 5×10^5 c.f.u. per mL and the final concentration of DMSO or DMF in the assay, if present, was 1.25%. Assays were set up in duplicate and incubated at 37° C. for 18 h. The concentration of compound that inhibited visible growth was reported as the minimum inhibitory concentration (MIC).

For experiment [2], the system named is S. aureus strain ATCC13709. Nature of the experiment: Antibacterial susceptibility (MIC) in the presence of 50% serum. The format is cell-based. Particulars: for Minimum inhibitory concentration, CAMHB + 50% Human Serum / Minimum inhibitory concentration, CAMHB + 50% Mouse Serum / Minimum inhibitory concentration, CAMHB + 50% Rat Serum: S. aureus ATCC 13709; for MIC: Staphylococcus aureus. On the procedure:
as §1
Susceptibility testing experiments were also carried out in the presence of serum. These experiments were carried out similar to the susceptibility testing with the following modifications. 75 μL of compounds diluted in CAMHB was mixed with 75 μL of bacteria diluted in 100% serum from any given source (commercial pooled mouse serum (MS) and human serum (HS), Equitech-Bio Inc.). The final concentration of animal serum in the assay was 50% and the concentrations of all other components were identical to those described for susceptibility testing.

The mark [3] stands for this setting: ATCC13709, read-out: Minimum inhibitory concentration, CAMHB + 50% Human Serum.
The mark [4] stands for this setting: ATCC13709, read-out: Minimum inhibitory concentration, CAMHB + 50% Mouse Serum.
[5] abbreviates: ATCC13709, read-out: Minimum inhibitory concentration, CAMHB + 50% Rat Serum.

With `CN[C@H](CC(C)C)C(=O)N[C@H]1C(=O)N[C@@H](CC(N)=O)C(=O)N[C@H]2C(=O)N[C@H]3C(=O)N[C@H](C(=O)N[C@H](C(=O)OCC(=O)NC(P(=O)(O)O)P(=O)(O)O)c4cc(O)cc(O)c4-c4cc3ccc4O)[C@H](O[C@H]3C[C@](C)(N)[C@@H](O)[C@H](C)O3)c3ccc(c(Cl)c3)Oc3cc2cc(c3O[C@@H]2O[C@H](CO)[C@@H](O)[C@H](O)[C@H]2O[C@H]2C[C@](C)(NCc3ccc(-c4ccc(Cl)cc4)cc3)[C@@H](O)[C@H](C)O2)Oc2ccc(cc2Cl)[C@H]1O.O=C(O)C(F)(F)F.O=C(O)C(F)(F)F.O=C(O)C(F)(F)F` [Compound 31], in experiment [1], the “Minimum inhibitory concentration, CAMHB” value was 16 µg/mL. Also, in experiment [2], the “Minimum inhibitory concentration, CAMHB + 50% Human Serum” value was 32 µg/mL; the “Minimum inhibitory concentration, CAMHB + 50% Mouse Serum” value was determined as 2 µg/mL; the “Minimum inhibitory concentration, CAMHB + 50% Rat Serum” value worked out at 2 µg/mL.

As to `CN[C@H](CC(C)C)C(=O)N[C@H]1C(=O)N[C@@H](CC(N)=O)C(=O)N[C@H]2C(=O)N[C@H]3C(=O)N[C@H](C(=O)N[C@H](C(=O)OCC(=O)Nc4ccc(CC(P(=O)(O)O)P(=O)(O)O)cc4)c4cc(O)cc(O)c4-c4cc3ccc4O)[C@H](O[C@H]3C[C@](C)(N)[C@@H](O)[C@H](C)O3)c3ccc(c(Cl)c3)Oc3cc2cc(c3O[C@@H]2O[C@H](CO)[C@@H](O)[C@H](O)[C@H]2O[C@H]2C[C@](C)(NCc3ccc(-c4ccc(Cl)cc4)cc3)[C@@H](O)[C@H](C)O2)Oc2ccc(cc2Cl)[C@H]1O.N.N.N` [Compound 33], the “Minimum inhibitory concentration, CAMHB” value in experiment [1] is more than 32 µg/mL. Also, in experiment [2], the “Minimum inhibitory concentration, CAMHB + 50% Human Serum” value is more than 32 µg/mL; the “Minimum inhibitory concentration, CAMHB + 50% Mouse Serum” value was found to be 8 µg/mL; the “Minimum inhibitory concentration, CAMHB + 50% Rat Serum” value stood at 8 µg/mL.

Consider `CC(C)CC(C(=O)NC1C(=O)NC(CC(N)=O)C(=O)NC2C(=O)NC3C(=O)NC(C(=O)NC(C(=O)O)c4cc(O)cc(O)c4-c4cc3ccc4O)C(O)c3ccc(c(Cl)c3)Oc3cc2cc(c3OC2OC(CO)C(O)C(O)C2OC2CC(C)(N)C(O)C(C)O2)Oc2ccc(cc2Cl)C1O)N(C)C(=O)CCC(=O)NC(P(=O)(O)O)P(=O)(O)O` (centres unmarked) [Compound 6], for which the “Minimum inhibitory concentration, CAMHB” value in experiment [1] was 64 µg/mL (≈ 37.2 µM). In addition, in experiment [2], the “Minimum inhibitory concentration, CAMHB + 50% Human Serum” value is 16 µg/mL; the “Minimum inhibitory concentration, CAMHB + 50% Mouse Serum” value was determined as 32 µg/mL; the “Minimum inhibitory concentration, CAMHB + 50% Rat Serum” value turned out to be 128 µg/mL.

Take `CC(C)C[C@H](C(=O)N[C@H]1C(=O)N[C@@H](CC(N)=O)C(=O)N[C@H]2C(=O)N[C@H]3C(=O)N[C@H](C(=O)N[C@H](C(=O)O)c4cc(O)cc(O)c4-c4cc3ccc4O)[C@H](O[C@H]3C[C@](C)(N)[C@@H](O)[C@H](C)O3)c3ccc(c(Cl)c3)Oc3cc2cc(c3O[C@@H]2O[C@H](CO)[C@@H](O)[C@H](O)[C@H]2O[C@H]2C[C@](C)(NCc3ccc(-c4ccc(Cl)cc4)cc3)[C@@H](O)[C@H](C)O2)Oc2ccc(cc2Cl)[C@H]1O)N(C)C(=O)CCCOC(=O)CC(P(=O)(O)O)P(=O)(O)O` [Compound 50]: in experiment [1], the “Minimum inhibitory concentration, CAMHB” value worked out at 32 µg/mL (≈ 15.3 µM). Moreover, in experiment [2], the “Minimum inhibitory concentration, CAMHB + 50% Human Serum” value is more than 32 µg/mL; the “Minimum inhibitory concentration, CAMHB + 50% Mouse Serum” value came to 32 µg/mL; the “Minimum inhibitory concentration, CAMHB + 50% Rat Serum” value is more than 32 µg/mL.

Regarding `CN[C@H](CC(C)C)C(=O)N[C@H]1C(=O)N[C@@H](CC(N)=O)C(=O)N[C@H]2C(=O)N[C@H]3C(=O)N[C@H](C(=O)N[C@H](C(=O)O)c4cc(O)cc(O)c4-c4cc3ccc4O)[C@H](O[C@H]3C[C@](C)(N)[C@@H](O)[C@H](C)O3)c3ccc(c(Cl)c3)Oc3cc2cc(c3O[C@@H]2O[C@H](CO)[C@@H](O)[C@H](O)[C@H]2O[C@H]2C[C@](C)(NCc3ccc(-c4ccc(Cl)cc4)cc3)[C@@H](O)[C@H](C)O2)Oc2ccc(cc2Cl)[C@H]1O` [Oritavancin (8), oritavancin bisphosphoric acid salt, reference compound], the MIC in experiment [1] came out at 0.5 µg/mL; in experiment [2] (setting [3]) it was 1 µg/mL; in experiment [2] (setting [4]) it was 2 µg/mL; in experiment [2] (setting [5]), 0.25 µg/mL.

Regarding `CC(C)C[C@H](C(=O)N[C@H]1C(=O)N[C@@H](CC(N)=O)C(=O)N[C@H]2C(=O)N[C@H]3C(=O)N[C@H](C(=O)N[C@H](C(=O)O)c4cc(O)cc(O)c4-c4cc3ccc4O)[C@H](O[C@H]3C[C@](C)(N)[C@@H](O)[C@H](C)O3)c3ccc(c(Cl)c3)Oc3cc2cc(c3O[C@@H]2O[C@H](CO)[C@@H](O)[C@H](O)[C@H]2O[C@H]2C[C@](C)(NCc3ccc(-c4ccc(Cl)cc4)cc3)[C@@H](O)[C@H](C)O2)Oc2ccc(cc2Cl)[C@H]1O)N(C)C(=O)CCCC(=O)NC(P(=O)(O)O)P(=O)(O)O.N.N.N` [Compound 10], the “Minimum inhibitory concentration, CAMHB” value in experiment [1] was more than 32 µg/mL. In addition, in experiment [2], the “Minimum inhibitory concentration, CAMHB + 50% Human Serum” value was more than 32 µg/mL; the “Minimum inhibitory concentration, CAMHB + 50% Mouse Serum” value was more than 32 µg/mL; the “Minimum inhibitory concentration, CAMHB + 50% Rat Serum” value is more than 32 µg/mL.

For `CN[C@H](CC(C)C)C(=O)N[C@H]1C(=O)N[C@@H](CC(N)=O)C(=O)N[C@H]2C(=O)N[C@H]3C(=O)N[C@H](C(=O)N[C@H](C(=O)O)c4cc(O)cc(O)c4-c4cc3ccc4O)[C@H](O)c3ccc(c(Cl)c3)Oc3cc2cc(c3O[C@@H]2O[C@H](CO)[C@@H](O)[C@H](O)[C@H]2O[C@H]2C[C@](C)(N)[C@H](O)[C@H](C)O2)Oc2ccc(cc2Cl)[C@H]1O` [Vancomycin (4), vancomycin hydrochloride, reference compound], the MIC in experiment [1] amounted to 1 µg/mL; in experiment [2] (setting [3]), 1 µg/mL; in experiment [2] (setting [4]), 2 µg/mL; in experiment [2] (setting [5]) it was 2 µg/mL.

In the case of `CC(C)C[C@H](C(=O)N[C@H]1C(=O)N[C@@H](CC(N)=O)C(=O)N[C@H]2C(=O)N[C@H]3C(=O)N[C@H](C(=O)N[C@H](C(=O)O)c4cc(O)cc(O)c4-c4cc3ccc4O)[C@H](O[C@H]3C[C@](C)(N)[C@@H](O)[C@H](C)O3)c3ccc(c(Cl)c3)Oc3cc2cc(c3O[C@@H]2O[C@H](CO)[C@@H](O)[C@H](O)[C@H]2O[C@H]2C[C@](C)(NCc3ccc(-c4ccc(Cl)cc4)cc3)[C@@H](O)[C@H](C)O2)Oc2ccc(cc2Cl)[C@H]1O)N(C)C(=O)CC(P(=O)(O)O)P(=O)(O)O.N.N.N` [Compound 44], the “Minimum inhibitory concentration, CAMHB” value in experiment [1] was determined as 32 µg/mL. For the same compound, in experiment [2], the “Minimum inhibitory concentration, CAMHB + 50% Human Serum” value came to 32 µg/mL; the “Minimum inhibitory concentration, CAMHB + 50% Mouse Serum” value was 4 µg/mL; the “Minimum inhibitory concentration, CAMHB + 50% Rat Serum” value came to 4 µg/mL.

The values are drawn from patent US8946144B2, “Phosphonated glycopeptide and lipoglycopeptide antibiotics and uses thereof for the prevention and treatment of bone and joint infections” (The Medicines Company, priority 2006, dated 2015).
